Results taken from PubChem BioAssay AID270 (DTP/NCI, 2004).
Where “and” joins values, the source holds several entries; their conditions need not be identical. Equal entries are not always repeated. Records with an inconclusive call do not appear.

Tested on: BDF1 mice, s.c. Lewis lung carcinoma, T/C %
Test: NCI In Vivo Anticancer Drug Screen. Data for tumor model Lewis Lung Carcinoma (subcutaneous) in B6D2F1 (BDF1) mice
In short: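 Antitumor effect in vivo is scored from survival or tumor burden, reported as treated relative to vehicle controls.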

[1] = endpoint: median survival time, dose: 6.25 mg/kg/injection, schedule: Q01DX009 (ip), vehicle: saline, higher = longer survival
[2] = endpoint: median survival time, dose: 12.5 mg/kg/injection, schedule: Q01DX009 (ip), vehicle: saline, higher = longer survival

COc1cc(NS(C)(=O)=O)ccc1Nc1c2cccc(C)c2nc2c(C)cccc12
T/C (endpoint: median survival time, dose: 6.25 mg/kg/injection, schedule: Q01DX011 (ip), vehicle: saline, higher = longer survival): 88 % of control
T/C (endpoint: median survival time, dose: 12.5 mg/kg/injection, schedule: Q01DX011 (ip), vehicle: saline, higher = longer survival): 113 % of control
T/C (endpoint: median tumor weight (est.), dose: 25.0 mg/kg/injection, schedule: Q01DX011 (ip), vehicle: saline, higher = larger tumour): 579 % of control

O
T/C (endpoint: median survival time, dose: 100.0 mg/kg/injection, schedule: Q02DX009 (ip), vehicle: saline, higher = longer survival): 91 % of control
T/C (endpoint: median survival time, dose: 200.0 mg/kg/injection, schedule: Q02DX009 (ip), vehicle: saline, higher = longer survival): 110 % of control
T/C (endpoint: median survival time, dose: 600.0 mg/kg/injection, schedule: Q02DX009 (ip), vehicle: saline, higher = longer survival): 94 % of control

Nc1nc(N)c2nc(CN(CCO)c3ccc(C(=O)NC(CCC(=O)O)C(=O)O)cc3)cnc2n1 (configuration not stated)
T/C (endpoint: median survival time, dose: 0.25 mg/kg/injection, schedule: Q01DX009 (ip), vehicle: Klucel (hydroxypropylcellulose) (HPC), higher = longer survival): 96 % of control
T/C (endpoint: median survival time, dose: 0.5 mg/kg/injection, schedule: Q01DX009 (ip), vehicle: Klucel (hydroxypropylcellulose) (HPC), higher = longer survival): 107 % of control
T/C (endpoint: median survival time, dose: 1.0 mg/kg/injection, schedule: Q01DX009 (ip), vehicle: Klucel (hydroxypropylcellulose) (HPC), higher = longer survival): 108 % of control
T/C (endpoint: median survival time, dose: 2.0 mg/kg/injection, schedule: Q01DX009 (ip), vehicle: Klucel (hydroxypropylcellulose) (HPC), higher = longer survival): 89 % of control

CC[C@]1(O)C[C@H]2CN(CCc3c([nH]c4ccccc34)[C@@](C(=O)OC)(c3cc4c(cc3OC)N(C)[C@H]3[C@@](O)(C(=O)OC)[C@H](OC(C)=O)[C@]5(CC)C=CCN6CC[C@]43[C@@H]65)C2)C1
T/C (endpoint: mean tumor weight, dose: 0.12 mg/kg/injection, schedule: Q01DX011 (ip), vehicle: saline, higher = larger tumour): 109 % of control
T/C (endpoint: mean tumor weight, dose: 0.24 mg/kg/injection, schedule: Q01DX011 (ip), vehicle: saline, higher = larger tumour): 94 % of control
T/C (endpoint: mean tumor weight, dose: 0.36 mg/kg/injection, schedule: Q01DX011 (ip), vehicle: saline, higher = larger tumour): 84 % of control
T/C (endpoint: mean tumor weight, dose: 0.54 mg/kg/injection, schedule: Q01DX011 (ip), vehicle: saline, higher = larger tumour): 99 % of control
T/C (endpoint: mean tumor weight, dose: 0.8 mg/kg/injection, schedule: Q01DX011 (ip), vehicle: saline, higher = larger tumour): 60 % of control
T/C (endpoint: mean tumor weight, dose: 0.81 mg/kg/injection, schedule: Q01DX011 (ip), vehicle: saline, higher = larger tumour): 111 % of control
T/C (endpoint: mean tumor weight, dose: 125.0 micrograms/kg/injection, schedule: Q01DX011 (ip), vehicle: saline, higher = larger tumour): 61 % of control
T/C (endpoint: mean tumor weight, dose: 250.0 micrograms/kg/injection, schedule: Q01DX011 (ip), vehicle: saline, higher = larger tumour): 53 % of control
T/C (endpoint: median survival time, dose: 0.06 mg/kg/injection, schedule: Q01DX009 (ip), vehicle: saline, higher = longer survival): 101 % of control and 118 % of control
T/C (endpoint: median survival time, dose: 0.12 mg/kg/injection, schedule: Q01DX009 (ip), vehicle: saline, higher = longer survival): 88 % of control
T/C (endpoint: median survival time, dose: 0.25 mg/kg/injection, schedule: Q01DX009 (ip), vehicle: saline, higher = longer survival): 96 % of control

CC1C[N-]CC(C)C1.CC1C[N-]CC(C)C1.CC1C[N-]CC(C)C1.CC1C[N-]CC(C)C1.[Cl][Rh][Cl] (configuration not stated)
T/C (endpoint: median survival time, dose: 1.5 mg/kg/injection, schedule: Q01DX009 (ip), vehicle: saline, higher = longer survival): 104 % of control
T/C (endpoint: median survival time, dose: 3.0 mg/kg/injection, schedule: Q01DX009 (ip), vehicle: saline, higher = longer survival): 114 % of control
T/C (endpoint: median survival time, dose: 6.0 mg/kg/injection, schedule: Q01DX009 (ip), vehicle: saline, higher = longer survival): 105 % of control

Cc1ccc(Oc2ccc3cc[n+](C)cc3c2)cc1
T/C [1]: 96 % of control
T/C [2]: 101 % of control

COc1cc(C=Nc2ccc(-c3nc(Cc4ccccc4)sc3C)cc2)ccc1N(CCCl)CCCl
T/C (endpoint: median survival time, dose: 12.5 mg/kg/injection, schedule: Q01DX009 (ip), vehicle: Klucel (hydroxypropylcellulose) (HPC), higher = longer survival): 90 % of control
T/C (endpoint: median survival time, dose: 25.0 mg/kg/injection, schedule: Q01DX009 (ip), vehicle: Klucel (hydroxypropylcellulose) (HPC), higher = longer survival): 110 % of control

COc1cc(OC)c(OC)cc1/C=C/c1cc[n+](C)c2ccccc12
T/C [1]: 97 % of control
T/C [2]: 97 % of control
T/C (endpoint: median survival time, dose: 25.0 mg/kg/injection, schedule: Q01DX009 (ip), vehicle: saline, higher = longer survival): 111 % of control

O=c1cc(-c2ccc(O)cc2)oc2c(O)c(O)c(O)c(O)c12
T/C (endpoint: mean tumor weight, dose: 50.0 mg/kg/injection, schedule: Q01DX011 (ip), vehicle: saline, higher = larger tumour): 70 % of control
T/C (endpoint: mean tumor weight, dose: 100.0 mg/kg/injection, schedule: Q01DX011 (ip), vehicle: saline, higher = larger tumour): 73 % of control
T/C (endpoint: mean tumor weight, dose: 200.0 mg/kg/injection, schedule: Q01DX011 (ip), vehicle: saline, higher = larger tumour): 43 % of control

NCCCOc1ccc([N+](=O)[O-])cc1Cl
T/C [2]: 87 % of control
T/C (endpoint: median survival time, dose: 50.0 mg/kg/injection, schedule: Q01DX009 (ip), vehicle: saline, higher = longer survival): 100 % of control and 120 % of control and 121 % of control
T/C (endpoint: median survival time, dose: 100.0 mg/kg/injection, schedule: Q01DX009 (ip), vehicle: saline, higher = longer survival): 87 % of control and 101 % of control and 112 % of control
